Test: recombinant barcode read abundance after kanamycin selection (control-corrected) (log10(CPM+1)); higher = more efficient recombination; sequences stand for … in AGTGCAGAGAAAATCGGCCAGTTTTCTCTGCCTGCAGTCCGCATGCCGT…AGATTTATGCAGCGGACTGCCTTTCTCCCAAAGTGATAAACCGGACAGTATCATGGACCGGTTTTCCCGGTAATCCGTATTTGCAAGGTTGGTTTCACT; site = the 11-nt target
Procedure, shortened: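 Oligos holding a promoter, target, barcode and the J23119-driven first 104 bases of the bridge RNA were Gibson-cloned into a vector that supplied the other 73 bp plus a T7-inducible recombinase. This library was co-electroporated with a donor plasmid into E. coli. Two replicates went on chloramphenicol/ampicillin LB agar (control) and two on chloramphenicol/ampicillin/kanamycin with 0.1 mM IPTG. Recombination efficiency is read from averaged, control-corrected barcode counts per million at recombinant junctions, reported as log10(CPM+1).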
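Further: IS621 recombinase and bridge RNA in Escherichia coli cells.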

Sequence	recombinant barcode read abundance (log10)
AACTTAACTTGGGTTCTAACCTGTTGCCT (site AACTCAACTAG)	0.0571
CCGCATGCTTGGGTTCTAACCTGTTGCCT (site CCGTATGCTAG)	0.0765
AGGCTGGCTTGGGTTCTAACCTGTTGCCT (site AGGCTGACTAG)	0.511
TAAGGCCCTTGGGTTCTAACCTGTTGCTT (site TAAGGCCCTAA)	1.56
AAGTCCACTTGGGTTCTAACCTGTTGCCT (site ATTTCCACTAG)	0.027
AGTTCCACTTGGGTTCTAACCTGTTGCCT (site AGTTGCACTAG)	0.0253
GGTACTACTTGGGTTCTAACCTGTTGCCA (site ACTACTACTTG)	0.0797
CAACCGTCTTGGGTTCTAACCTGTTGCCT (site CAACCGACTAG)	0
TAGTGTGCTTGGGTTCTAACCTGTTGCCT (site TAGTGTTCTAG)	0.0139
TCGGGGTCTTGGGTTCTAACCTGTTGCCT (site CCGGGGTCTAG)	0.543
CTAGGAGCTTGGGTTCTAACCTGTTGCTG (site CTAGGAGCTGA)	0.169
AGCGACCCTTGGGTTCTAACCTGTTGCGT (site AGCGACCCTAC)	3.18
CTCATTCCTTGGGTTCTAACCTGTTGCGT (site CTCATTCCTAG)	0.0869
GGTCCATCTTGGGTTCTAACCTGTTGCCT (site GTTCCATCTAG)	0.165
CTCTCGCCTTGGGTTCTAACCTGTTGCCT (site CTGTCGCCTAG)	0.0587
TCGTGCGCTTGGGTTCTAACCTGTTGCCT (site TCGTGCACTAG)	0.177
GACCACCCTTGGGTTCTAACCTGTTGCGG (site GACCACCCTCC)	2.85
CGTGCGTCTTGGGTTCTAACCTGTTGCCT (site TGTGCGTCTAG)	0.0337
ACATGAACTTGGGTTCTAACCTGTTGCCT (site ACTTGAACTAG)	0.101
TAGTGCTCTTGGGTTCTAACCTGTTGCCC (site TAGTGCTCTAG)	0.675
TGTGCACCTTGGGTTCTAACCTGTTGCAC (site TGTGCACCTGT)	0.32
TATCAGACTTGGGTTCTAACCTGTTGCCA (site TATCAGACTTG)	0.639

Sequence	recombinant barcode read abundance (log10)
CTAAAGTCTTGGGTTCTAACCTGTTGCCC (site CTAAAGTCTGT)	0.136
CCTTGCACTTGGGTTCTAACCTGTTGCGA (site CCTGGCACTTC)	0.0155
GCGGGGTCTTGGGTTCTAACCTGTTGCTT (site GCAGGGTCTAA)	2.65
ACAGGTACTTGGGTTCTAACCTGTTGCCT (site GCAGGTACTAG)	0.0917
GGGCCCGCTTGGGTTCTAACCTGTTGCTA (site GGGCCCGCTTA)	1.68
AGGAGAGCTTGGGTTCTAACCTGTTGCTT (site AGGAGAGCTAA)	1.13
TAGTGTTCTTGGGTTCTAACCTGTTGCCT (site TAGTGTCCTAG)	0.181
TGAGACACTTGGGTTCTAACCTGTTGCTG (site TGACACACTCA)	0.0729
TCCCGGACTTGGGTTCTAACCTGTTGCCT (site TCTCGGACTAG)	0.1
CATTCAACTTGGGTTCTAACCTGTTGCCG (site CATTCAACTCG)	0.0716
TGCCCCTCTTGGGTTCTAACCTGTTGCCG (site TGCCCCTCTCG)	1.46
CTAGGCCCTTGGGTTCTAACCTGTTGCGT (site CTAGGCCCTAT)	2.28
GGCTTGTCTTGGGTTCTAACCTGTTGCCT (site GGCATGTCTAG)	0.0663
ACGATAACTTGGGTTCTAACCTGTTGCCA (site CTAGATTCTAT)	0.363
GATGAGTCTTGGGTTCTAACCTGTTGCTT (site GATGAGTCTAA)	1.8
CTCGCGACTTGGGTTCTAACCTGTTGCGG (site CTCGCGACTCC)	0.181
GAAGTGCCTTGGGTTCTAACCTGTTGCCT (site GAAGAGCCTAG)	0.272
AATGTATCTTGGGTTCTAACCTGTTGCCT (site AATGTATCTAG)	1.17
CAGACTTCTTGGGTTCTAACCTGTTGCCT (site CAGACTTCTAG)	0.473
AACGTACCTTGGGTTCTAACCTGTTGCCA (site AACGTACCTTG)	0.674
CTAAGGGCTTGGGTTCTAACCTGTTGCTG (site CTAAGGACTAA)	0.314
GCTGGACCTTGGGTTCTAACCTGTTGCCT (site GCTGGACCTAG)	2.15

Sequence	recombinant barcode read abundance (log10)
GGCAGATCTTGGGTTCTAACCTGTTGCTT (site GGCAGCTCTAA)	0.043
TGTGCTCCTTGGGTTCTAACCTGTTGCAG (site TGTGCACCTGT)	0.294
CTCTACCCTTGGGTTCTAACCTGTTGCGT (site CTCTATCCTAC)	0.0916
CGGCACACTTGGGTTCTAACCTGTTGCTT (site CGGCACACTAA)	0.778
GTGGTAGCTTGGGTTCTAACCTGTTGCCT (site GTGGTACCTAG)	0.209
GTCGACCCTTGGGTTCTAACCTGTTGCCT (site GTCGACGCTAG)	0.136
AGTTTCACTTGGGTTCTAACCTGTTGCCT (site AGTTACACTAG)	0.11
ATATTGTCTTGGGTTCTAACCTGTTGCCA (site ATATTGCCTAG)	0.0374
TTCCGAGCTTGGGTTCTAACCTGTTGCAG (site CCTACGCCTTG)	0.216
AGCAGAGCTTGGGTTCTAACCTGTTGCCG (site AGCAGAGCTCT)	0.465
CAGTTTGCTTGGGTTCTAACCTGTTGCCT (site CAGTTTGCTAG)	0.512
CGATGTGCTTGGGTTCTAACCTGTTGCCT (site CGATGTCCTAG)	0.334
CGCGTTCCTTGGGTTCTAACCTGTTGCCT (site CGCGATCCTAG)	0.262
GAGAGGACTTGGGTTCTAACCTGTTGCTT (site GAGAGGACTAA)	1.86
ACCAAAGCTTGGGTTCTAACCTGTTGCCA (site ACCACAGCTAG)	0.137
TAGAACACTTGGGTTCTAACCTGTTGCTA (site TAGAACACTAA)	0.237
GAGGAACCTTGGGTTCTAACCTGTTGCCT (site GAGGAACCTAG)	2.12
CTGAGGCCTTGGGTTCTAACCTGTTGCCT (site GTGAGGCCTAG)	0.11
GTCCCTCCTTGGGTTCTAACCTGTTGCCT (site GTCCCTCCTAA)	0.187
CCTACACCTTGGGTTCTAACCTGTTGCCT (site CCTACAGCTAG)	0.0384
GAGGTGCCTTGGGTTCTAACCTGTTGCAG (site GAGGTGCCTCT)	1.44
CATCCTCCTTGGGTTCTAACCTGTTGCTT (site CAGCCTTCTAA)	0.103

Sequence	recombinant barcode read abundance (log10)
ACGCGTCCTTGGGTTCTAACCTGTTGCCG (site ACGCGTCCTCG)	0.263
ATGGGTCCTTGGGTTCTAACCTGTTGCCT (site ATGGGTCCTAG)	2.55
CTAGTGACTTGGGTTCTAACCTGTTGCGT (site CTAGTGACTAC)	1.17
CTCCTCTCTTGGGTTCTAACCTGTTGCCT (site CTCCTCCCTAG)	0.862
ACCTAACCTTGGGTTCTAACCTGTTGCAT (site ACCTAACCTAT)	1.67
GTCCCTCCTTGGGTTCTAACCTGTTGCCT (site GTCCCTCCTAG)	0.709
TCCAAACCTTGGGTTCTAACCTGTTGCAG (site TCCAACCCTCT)	0.0235
AGCAGAGCTTGGGTTCTAACCTGTTGCAG (site AGCAGAGCTCA)	0.631
CCTACACCTTGGGTTCTAACCTGTTGCCT (site CCTACACCTAG)	0.928
CACATCACTTGGGTTCTAACCTGTTGCCT (site CACAACACTAG)	0.122
AGCAGAGCTTGGGTTCTAACCTGTTGCAG (site AGCAGAGCTCG)	0.505
AGAATAGCTTGGGTTCTAACCTGTTGCAG (site AGGATAGCTCA)	0.0664
CTCTCGGCTTGGGTTCTAACCTGTTGCCT (site CTCTAGGCTAG)	0.494
GGTATAGCTTGGGTTCTAACCTGTTGCCT (site GGTATAGCTAG)	0.827
ATCGGAGCTTGGGTTCTAACCTGTTGCAG (site ATCGGAGCTCG)	0.294
GATTCTTCTTGGGTTCTAACCTGTTGCCT (site GCTTCTTCTAG)	0.024
CAACCGTCTTGGGTTCTAACCTGTTGCCT (site CAACCGGCTAG)	0.0528
GGGCCTACTTGGGTTCTAACCTGTTGCTC (site GGGCCTACTCA)	0.0546
GTAAGCACTTGGGTTCTAACCTGTTGCTT (site GTAAGTACTAA)	0.242
TGTCGAGCTTGGGTTCTAACCTGTTGCCG (site TGTCGAGCTCG)	0.107
